Experiments:
Type in all cases: in vivo, Sprague-Dawley rats
[1] = tested on: 5-HT; assay: Microdialysis assay of monoamines in hypothalamus of conscious rats: 5-HT; conditions: L-tryptophan 100 mg/kg i.p. at 150 min, single animal
Experimental: (§1) A David Kopf stereotaxic instrument was used to implant the probe unilaterally in the hypothalamus at coordinates rostral -1.5 mm, lateral -1.3 mm, and ventral -9.0 mm (Paxinos and Watson, 1986). After a 48 hour recovery period, rats were placed in a large plastic bowl with a mounted liquid swivel system (CMA/120 system for freely moving animals, Bioanalytical Systems, West Lafayette, IN). Filtered artificial cerebrospinal fluid (CSF) (150 mM NaCl, 3.0 mM KCl, 1.7 mM CaCl2, and 0.9 mM MgCl2) was perfused through the probe at a rate of […]. The output dialysate line was fitted to a tenport HPLC valve with a 20 µl loop. At the end of each 30 minute sampling period, dialysate collected in the loop was injected on an analytical column (Spherisorb 3 µ ODS2, 2X150 mm, Keystone Scientific).
(§2) The method used to measure monoamines was as described by Perry and Fuller (1992). Briefly, dialysate collected in the 20 µl loop was assayed for 5-HT, NE and DA. The 20 µl injection went onto the column with a mobile phase which resolved NE, DA, and 5-HT: 75 mM potassium acetate, 0.5 mM ethylenediaminetetraacetic acid, 1.4 mM sodium octanesulfonic acid and 8% methanol, pH 4.9. The mobile phase for the amine column was delivered with a flow programmable pump at an initial flow rate of 0.2 ml/min increasing to 0.3 ml/min at 5 min then decreasing back to 0.2 ml/min at 26 min with a total run time of 30 min. Flow programming was used to elute the 5-HT within a 25 min time period. The electrochemical detector (EG&G, Model 400) for the amine column was set at a potential of 400 mV and a sensitivity of 0.2 nA/V. The data was collected and analyzed with a Hewlett-Packard HP1000 chromatography system which measured peak heights and calculated sample concentrations. Basal levels were measured for at least 90 minutes prior to drug administration.
(§3) Extracellular levels of the amines in microdialysates were calculated by comparing peak heights with those of 50 pmole standards. The mean value of the four samples immediately preceding drug administration served as the basal level for each experiment and data was converted to percent of basal. Paired t-tests were used to compare the mean of the basal values from the time point immediately preceding drug administration to those of each time point thereafter.

[2] = tested on: DA; assay: Microdialysis assay of monoamines in hypothalamus of conscious rats: DA; conditions: percent of baseline, pindolol s.c. infusion 50 mg/kg/hr from 120 min, single animal
Experimental: as §1, §2, §3

[3] = tested on: NE; assay: Microdialysis assay of monoamines in hypothalamus of conscious rats: NE; conditions: percent of baseline, pindolol s.c. infusion 50 mg/kg/hr from 120 min, single animal
Experimental: as §1, §2
Extracellular levels of the amines in microdialysates were calculated by comparing peak heights with those of 50 pmole standards. […]

## N[C@@H](Cc1c[nH]c2ccccc12)C(=O)O [L-tryptophan]
[1]; Test 1, 180 min
  5-HT: 88.5% of basal
[1]; Test 1, 210 min
  5-HT: 83.6% of basal
[1]; Test 1, 240 min
  5-HT: 76.3% of basal
[1]; Test 1, 270 min
  5-HT: 73.9% of basal

## CC(C)NCC(O)COc1cccc2[nH]ccc12 (racemic) [pindolol, 4-(2-hydroxy-3-isopropylaminopropoxy)-indole]
[2]; Test 2, 150 min
  DA (%): 87.2%
[2]; Test 2, 180 min
  DA (%): 73.2%
[2]; Test 2, 210 min
  DA (%): 70.3%
[2]; Test 2, 240 min
  DA (%): 68.5%
[3]; Test 2, 150 min
  NE (%): 221.5%
[3]; Test 2, 210 min
  NE (%): 232.5%
[3]; Test 2, 240 min
  NE (%): 261.9%
